Test results as given in US20240262823A1, “PHARMACEUTICALLY ACCEPTABLE SALT OF PYRAZOLOHETEROARYL DERIVATIVE AND CRYSTAL FORM THEREOF” (JIANGSU HENGRUI PHARMACEUTICALS CO., LTD., priority 2021, published 2024).

What was measured:
[1] = Long-term/accelerated stability test of crystalline salt forms in sealed aluminum foil bags; type: physicochemical; details: for Crystalline form: after storage
Method: The crystalline form α of mesylate, the crystalline form α of sulfate, the crystalline form I of maleate, the crystalline form a of p-toluenesulfonate and the crystalline form a of oxalate were stored in sealed aluminum foil bags and subjected to stability test under the conditions of −20° C., 4° C., 25° C./60% RH and 40° C./75% RH.

[2] = tested on: LoVo cells; assay: Cell proliferation assay (intracellular ATP content, CellTiter-Glo); type: cell-based, human; details: 3 days
From the text: The following method evaluates the inhibitory effect of the compounds disclosed herein on the proliferation of LoVo cells via IC50 by measuring the intracellular ATP content. The experimental method was briefly described as follows:
• 1. LoVo, human colon cancer cells (Cobioer, Nanjing, CBP60032) • 2. Fetal bovine serum (GIBCO, 10091-148) • 3. F-12K Medium (Gibco, 21127030) • 4. CellTite-Glo reagent (Promega, G7573) • 5. 96-well cell culture plate (Corning, 3903) • 6. Pancreatin (Invitrogen, 25200-072) • 7. Microplate reader (BMG, PHERAsta) • 8. Cell counter (Countstar, Shanghai, IC1000)
LoVo cells were cultured in an F-12K culture medium containing 10% of FBS, and passaged twice or thrice a week in a passage ratio of 1:3 or 1:5. During passage, cells were digested by pancreatin, transferred to a centrifuge tube, and centrifuged for 3 min at 1200 rpm. The supernatant was discarded, and fresh culture medium was added to resuspend the cells. To a 96-well cell culture plate, 90 μL of the cell suspension was added at a density of 3.88×10^4 cells/mL. To peripheral wells of the 96-well plate, only 100 μL of complete medium was added. […]
The test samples were each diluted to 2 mM in DMSO and serially 3-fold diluted to the 10th concentration. […] The chemiluminescence signals were read by a PHERAstar system, and the data were processed by GraphPad software.

[3] = molecular target: ATR enzyme (Homo sapiens (Human), UniProt Q13535); assay: Inhibitory effect on ATR enzyme (HTRF, phospho-p53); type: biochemical
Chain of ATR enzyme (Q13535 whole entry): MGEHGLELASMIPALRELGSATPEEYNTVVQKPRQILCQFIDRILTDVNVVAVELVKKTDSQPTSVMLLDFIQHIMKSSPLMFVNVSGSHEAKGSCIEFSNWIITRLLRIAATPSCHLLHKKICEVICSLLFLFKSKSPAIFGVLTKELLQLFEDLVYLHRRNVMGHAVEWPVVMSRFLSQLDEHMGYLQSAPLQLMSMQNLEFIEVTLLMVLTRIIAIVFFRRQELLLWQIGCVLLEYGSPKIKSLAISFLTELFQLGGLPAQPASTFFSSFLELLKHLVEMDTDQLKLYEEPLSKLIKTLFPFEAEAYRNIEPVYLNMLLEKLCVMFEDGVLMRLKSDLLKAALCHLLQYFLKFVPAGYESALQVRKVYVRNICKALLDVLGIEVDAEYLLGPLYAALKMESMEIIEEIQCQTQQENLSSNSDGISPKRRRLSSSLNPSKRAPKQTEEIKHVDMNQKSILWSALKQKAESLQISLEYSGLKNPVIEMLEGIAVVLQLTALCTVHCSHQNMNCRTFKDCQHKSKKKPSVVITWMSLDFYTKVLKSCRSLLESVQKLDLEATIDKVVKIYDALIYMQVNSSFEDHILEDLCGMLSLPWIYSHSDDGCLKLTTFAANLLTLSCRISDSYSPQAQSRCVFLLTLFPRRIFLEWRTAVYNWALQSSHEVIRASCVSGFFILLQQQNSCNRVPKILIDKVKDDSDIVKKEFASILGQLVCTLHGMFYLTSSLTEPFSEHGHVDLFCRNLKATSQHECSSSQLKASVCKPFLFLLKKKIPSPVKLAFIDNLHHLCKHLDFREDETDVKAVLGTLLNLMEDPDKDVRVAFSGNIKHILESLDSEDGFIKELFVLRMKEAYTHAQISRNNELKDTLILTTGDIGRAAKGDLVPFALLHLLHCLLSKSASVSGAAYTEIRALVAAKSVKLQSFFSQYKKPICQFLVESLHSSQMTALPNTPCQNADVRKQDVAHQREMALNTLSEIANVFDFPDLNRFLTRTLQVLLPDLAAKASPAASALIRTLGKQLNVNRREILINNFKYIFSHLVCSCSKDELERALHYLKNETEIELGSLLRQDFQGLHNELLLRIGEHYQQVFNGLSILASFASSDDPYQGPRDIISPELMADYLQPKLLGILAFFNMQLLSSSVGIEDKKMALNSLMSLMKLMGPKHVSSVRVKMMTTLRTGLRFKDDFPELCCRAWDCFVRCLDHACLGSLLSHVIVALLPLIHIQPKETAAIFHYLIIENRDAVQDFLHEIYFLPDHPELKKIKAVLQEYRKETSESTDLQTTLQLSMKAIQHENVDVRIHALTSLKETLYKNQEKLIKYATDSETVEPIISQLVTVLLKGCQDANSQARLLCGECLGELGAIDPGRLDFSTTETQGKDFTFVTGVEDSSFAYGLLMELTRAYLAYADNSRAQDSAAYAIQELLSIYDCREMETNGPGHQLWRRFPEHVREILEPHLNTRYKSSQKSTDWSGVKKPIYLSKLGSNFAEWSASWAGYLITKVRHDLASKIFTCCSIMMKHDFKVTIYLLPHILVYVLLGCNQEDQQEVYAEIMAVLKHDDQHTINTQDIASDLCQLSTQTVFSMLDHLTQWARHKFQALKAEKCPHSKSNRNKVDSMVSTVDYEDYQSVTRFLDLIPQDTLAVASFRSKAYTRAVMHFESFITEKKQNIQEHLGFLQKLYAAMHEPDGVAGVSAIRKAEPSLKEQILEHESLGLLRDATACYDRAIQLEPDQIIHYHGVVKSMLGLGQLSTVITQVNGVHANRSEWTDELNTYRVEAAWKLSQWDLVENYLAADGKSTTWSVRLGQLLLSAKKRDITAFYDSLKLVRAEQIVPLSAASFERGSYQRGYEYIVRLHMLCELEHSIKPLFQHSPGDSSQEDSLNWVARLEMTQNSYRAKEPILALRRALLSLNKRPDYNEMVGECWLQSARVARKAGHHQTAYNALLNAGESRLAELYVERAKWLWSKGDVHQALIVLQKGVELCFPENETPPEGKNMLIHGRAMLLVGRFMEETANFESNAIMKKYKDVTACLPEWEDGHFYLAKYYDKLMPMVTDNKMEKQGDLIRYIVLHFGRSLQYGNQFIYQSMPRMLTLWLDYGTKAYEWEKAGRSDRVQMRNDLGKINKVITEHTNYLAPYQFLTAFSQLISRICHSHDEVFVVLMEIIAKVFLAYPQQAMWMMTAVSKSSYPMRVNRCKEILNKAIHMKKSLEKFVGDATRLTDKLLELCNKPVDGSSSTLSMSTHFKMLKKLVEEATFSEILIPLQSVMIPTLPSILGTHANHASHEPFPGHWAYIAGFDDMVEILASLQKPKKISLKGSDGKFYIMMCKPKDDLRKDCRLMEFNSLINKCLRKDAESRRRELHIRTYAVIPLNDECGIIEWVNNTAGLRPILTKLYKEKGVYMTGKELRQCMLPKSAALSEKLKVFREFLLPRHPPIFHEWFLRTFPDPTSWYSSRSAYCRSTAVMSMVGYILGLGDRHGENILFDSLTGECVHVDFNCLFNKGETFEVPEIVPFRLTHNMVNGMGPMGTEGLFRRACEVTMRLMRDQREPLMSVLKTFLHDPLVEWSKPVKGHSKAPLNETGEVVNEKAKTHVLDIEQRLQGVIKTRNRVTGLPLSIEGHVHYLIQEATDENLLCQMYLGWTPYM
Chain of ATR enzyme (Q8WXE1 whole entry partner): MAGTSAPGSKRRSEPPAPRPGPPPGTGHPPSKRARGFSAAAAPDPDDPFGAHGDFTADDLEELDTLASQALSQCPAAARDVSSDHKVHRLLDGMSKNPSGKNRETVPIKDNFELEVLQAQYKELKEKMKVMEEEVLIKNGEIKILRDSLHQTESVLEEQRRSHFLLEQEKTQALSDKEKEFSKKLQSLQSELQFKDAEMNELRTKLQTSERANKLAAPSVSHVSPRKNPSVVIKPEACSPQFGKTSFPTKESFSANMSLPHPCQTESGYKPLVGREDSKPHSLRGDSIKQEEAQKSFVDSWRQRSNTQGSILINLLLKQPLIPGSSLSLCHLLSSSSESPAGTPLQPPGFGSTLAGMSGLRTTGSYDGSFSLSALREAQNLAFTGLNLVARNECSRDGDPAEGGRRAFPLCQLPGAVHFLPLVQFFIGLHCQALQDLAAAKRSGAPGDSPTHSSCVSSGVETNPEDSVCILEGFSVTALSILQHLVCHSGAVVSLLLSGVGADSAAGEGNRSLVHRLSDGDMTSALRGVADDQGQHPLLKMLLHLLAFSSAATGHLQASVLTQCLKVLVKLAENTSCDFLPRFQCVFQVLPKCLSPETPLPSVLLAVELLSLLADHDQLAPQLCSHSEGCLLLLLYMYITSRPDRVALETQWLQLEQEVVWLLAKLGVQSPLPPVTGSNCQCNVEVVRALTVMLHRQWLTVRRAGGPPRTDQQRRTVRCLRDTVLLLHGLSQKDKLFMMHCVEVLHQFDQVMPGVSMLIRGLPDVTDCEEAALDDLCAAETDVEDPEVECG
From the text: The following method was used to determine the inhibitory effect of the compounds disclosed herein on ATR enzyme. The experimental method was briefly described as follows:
• 1. ATR enzyme (Eurofins Pharma Discovery Services, 14-953-M) • 2. GST-tag P53 protein (Eurofins Pharma Discovery Services, 14-952-M) • 3. 384-well plate (Thermo Scientific, 267462) • 4. U-shaped bottom 96-well plate (Corning, 3795) • 5. MAb Anti-phospho p53-Eu cryptate (Cisbio, 61P08KAE) • 6. MAb Anti GST-d2 (Cisbio, 61GSTDLF) • 7. ATP solution (Promega, V916B) • 8. EDTA (Thermo Scientific, AM9260G) • 9. HEPES (Gibco, 15630-080) • 10. Microplate reader (BMG, PHERAsta)
1 nM ATR enzyme, 50 nM P53 protein, 7.435 μM ATP and small molecule compounds of different concentrations (serially 3-fold diluted from 1 μM to the 11th concentration) were mixed and incubated at room temperature for 2 h. A terminating buffer (12.5 mM HEPES, 250 mM EDTA) was added. The mixture was well mixed before 0.42 ng/well of mAb anti-phospho p53-Eu cryptate and 25 ng/well of mAb anti GST-d2 were added. The mixture was incubated overnight at room temperature, and the fluorescence signals at 620 nm and 665 nm were detected using a PHERAstar system. Data were processed using GraphPad software.

[4] = Pharmacokinetic study in rats after intragastric administration; type: in vivo; details: both sexes, rat, plasma, po, SD rats, 2 mg/kg
Method: The drug concentrations in the plasma of the test animals (rats) at different time points after intragastric administration of the compound of Example 1 were determined by an LC/MS/MS method. The pharmacokinetic behavior in rats of the compound disclosed herein was studied and its pharmacokinetic profile was evaluated.
12 healthy adult SD rats (half male and half female; purchased from Vital River) were evenly divided into 3 groups of 4.
A certain amount of the compound was added to a mixed solvent containing 5% of DMSO, 5% of Tween 80 and 90% of normal saline to obtain a colorless and clear solution.
SD rats were intragastrically administered with the compound after fasting overnight, at a dose of 2 mg/kg and a volume of 10.0 mL/kg.
Rats were intragastrically administered with the compound of Examples 1. 0.2 mL of blood was collected from the orbit pre-dose and at 0.25, 0.5, 1.0, 2.0, 4.0, 6.0, 8.0, 11.0 and 24.0 h post-dose. The blood samples were transferred to EDTA-K2kk anticoagulation tubes, centrifuged at 4° C. and 11000 rpm for 5 min to separate out plasma. The plasma samples were stored at −20° C. The rats were fed 2 h after administration.
The plasma concentration of the compound in rats after intragastric administration was determined: 25 μL of rat plasma at each time point post-dose was mixed with 50 μL of internal standard and 175 μL of acetonitrile; the mixture was vortexed for 5 min and centrifuged for 10 min at 4000 rpm. 1 μL of supernatant was taken for LC/MS/MS analysis.

[5] = long-term/accelerated stability test, overall
[6] = Initial, printed in the 25° C./60% RH row

Structure (SMILES) | Purity (%) ([1]; 4° C., 1 month) | Purity (%) ([1]; 4° C., 2 months) | Purity (%) ([1]; 4° C., 3 months) | Crystalline form ([1]; 4° C.) | Purity (%) ([1]; 25° C./60% RH, 1 month) | Purity (%) ([1]; 25° C./60% RH, 2 months) | Purity (%) ([1]; 25° C./60% RH, 3 months) | Crystalline form ([1]; 25° C./60% RH) | Purity (%) ([1]; 40° C./75% RH, 1 month) | Purity (%) ([1]; 40° C./75% RH, 2 months) | Purity (%) ([1]; 40° C./75% RH, 3 months) | Crystalline form ([1]; 40° C./75% RH) | Purity (%) ([1]; Initial) | Chemical stability (in words) [1, 5] | Purity (%) ([1]; −20° C., 1 month) | Purity (%) ([1]; −20° C., 2 months) | Purity (%) ([1]; −20° C., 3 months) | Crystalline form ([1]; −20° C.) | Chemical stability (in words) ([1]; 40° C. and 75% RH) | Purity (%) [1, 6] [%] | also measured
CC1COCCN1c1cc(C(C)(C)C#N)c2c(n1)c(-c1cc[nH]n1)nn2C.CC1COCCN1c1cc(C(C)(C)C#N)c2c(n1)c(-c1cc[nH]n1)nn2C.O=C(O)C(=O)O (stereo not shown) [Crystalline form a of oxalate] | 99.54 | 99.60 | 99.55 | Unchanged | 99.53 | 99.58 | 99.52 | Unchanged | 99.40 | 99.39 | 99.40 | Unchanged | 99.57 | relatively stable | 99.57 | 99.51 | 99.46 | Unchanged |  |  | 
CC1COCCN1c1cc(C(C)(C)C#N)c2c(n1)c(-c1cc[nH]n1)nn2C.O=C(O)C=CC(=O)O (stereo not shown) [Crystalline form I of maleate] | 98.99 | 98.99 | 99.00 | Unchanged | 98.84 | 98.82 | 98.77 | Unchanged | 98.59 | 98.26 | 98.30 | Unchanged | 98.97 |  | 99.04 | 99.00 | 99.00 | Unchanged | slightly degraded |  | 
CC1COCCN1c1cc(C(C)(C)C#N)c2c(n1)c(-c1cc[nH]n1)nn2C.Cc1ccc(S(=O)(=O)O)cc1 (stereo not shown) [Crystalline form a of p-toluenesulfonate] | 98.13 | 98.19 | 98.17 | Unchanged | 98.41 | 98.07 | 98.18 | Unchanged | 97.31 | 96.90 | 95.57 | Unchanged | 98.69 | slightly poor stability | 98.46 | 98.46 | 98.66 | Unchanged |  |  | 
C[C@@H]1COCCN1c1cc(C(C)(C)C#N)c2c(n1)c(-c1cc[nH]n1)nn2C [Example 1, (R)-2-methyl-2-(1-methyl-5-(3-methylmorpholino)-3-(1H-pyrazol-3-yl)-1H-pyrazolo[4,3-b]pyridin-7-yl)propanenitrile] |  |  |  |  |  |  |  |  |  |  |  |  |  |  |  |  |  |  |  |  | Max Inhibition (%) [2]: 93%; IC50 ([3]; 1 nM ATR enzyme, 50 nM P53 protein, 7.435 μM ATP, 2 h, read-out: IC50 for ATR enzyme inhibition): 3 nM; Max Inhibition (%) ([3]; ATR enzyme): 100%; Vd/F ([4]; read-out: Apparent volume of distribution Vz/F): 2.06 ± 1.22 L/kg; AUC ([4]; read-out: Area under curve AUC): 3200 ± 2750 ng·h/mL; CL/F ([4]; read-out: Clearance CL/F): 17.7 ± 12.4 mL/min/kg; half-life ([4]; read-out: Half-life T1/2 (converted)): 2.62 ± 2.48 h; Cmax ([4]; read-out: Plasma concentration Cmax): 1110 ± 394 ng/mL; MRT ([4]; read-out: Residence time MRT): 3.08 ± 2.31 h

The next lines start with results.

Purity (%) ([1]; 4° C., 1 month) | Purity (%) ([1]; 4° C., 2 months) | Purity (%) ([1]; 4° C., 3 months) | Crystalline form ([1]; 4° C.) | Purity (%) ([1]; 25° C./60% RH, 1 month) | Purity (%) ([1]; 25° C./60% RH, 2 months) | Purity (%) ([1]; 25° C./60% RH, 3 months) | Crystalline form ([1]; 25° C./60% RH) | Purity (%) ([1]; 40° C./75% RH, 1 month) | Purity (%) ([1]; 40° C./75% RH, 2 months) | Purity (%) ([1]; 40° C./75% RH, 3 months) | Crystalline form ([1]; 40° C./75% RH) | Purity (%) ([1]; Initial) | Chemical stability (in words) [1, 5] | Purity (%) ([1]; −20° C., 1 month) | Purity (%) ([1]; −20° C., 2 months) | Purity (%) ([1]; −20° C., 3 months) | Crystalline form ([1]; −20° C.) | Chemical stability (in words) ([1]; 40° C. and 75% RH) | Purity (%) [1, 6] [%] | Structure (SMILES) | also measured
97.07 | 97.29 |  | Unchanged | 93.00 | 92.90 |  | Unchanged | 89.37 | 83.97 |  | Unchanged | 97.55 | slightly poor stability | 97.62 | 97.56 |  | Unchanged |  | 97.70 | CC1COCCN1c1cc(C(C)(C)C#N)c2c(n1)c(-c1cc[nH]n1)nn2C.O=S(=O)(O)O (stereo not drawn) [Crystalline form α of sulfate] | 
98.66 | 98.65 | 98.64 | Unchanged | 98.53 | 98.54 | 98.62 | Unchanged | 97.00 | 97.56 | 95.66 | Unchanged | 98.72 |  | 98.73 | 98.69 | 98.61 | Unchanged | slightly degraded | 98.49 | CC1COCCN1c1cc(C(C)(C)C#N)c2c(n1)c(-c1cc[nH]n1)nn2C.CS(=O)(=O)O (stereo not drawn) [Crystalline form α of mesylate] | 
